We go through four molecules from ChEMBL document CHEMBL1127897, “Cucurbitacin F derivatives, anti-HIV principles from cowania mexicana” (Bioorg Med Chem Lett, 1994).

In brackets after ≈: the same amount, converted by molar mass.

Test [1] relates to H9. The experiment in a line: Tested for anti-HIV activity against acutely infected H9 cells, activity expressed as EC50. The format is functional, cell-based. To be noted: Homo sapiens.
The test system of test [2] is H9. The experiment in a line: Concentration required for […] against acutely infected H9 cells. The format is functional, cell-based. To be noted: Homo sapiens.
Test [3] can be described thus: Evaluated for the therapeutic index value of the compound. The format is functional.

Usually EC50 stands for the concentration that produces a half-maximal response. Usually IC50 stands for the concentration at which inhibition is half-maximal. Higher therefore signals lower potency. `CC(C)(O)CCC(=O)[C@](C)(O)C1[C@H](O)C[C@@]2(C)[C@@H]3CC=C4[C@@H](C[C@H](O)[C@@H](O)C4(C)C)[C@]3(C)C(=O)C[C@]12C` (some centres not stated) had an EC50 in the test on H9 [1] of 0.8 µg/mL (≈ 1.54 µM). In the test with H9 [2], this molecule gave an IC50 of 9.3 µg/mL (≈ 17.9 µM). The molecule also yielded a Therapeutic index in test [3] of 11.6.
`CC(C)(O)/C=C/C(=O)[C@](C)(O)C1[C@H](O)C(=O)[C@@]2(C)[C@@H]3CC=C4[C@@H](C[C@H](O)[C@@H](O)C4(C)C)[C@]3(C)C(=O)C[C@]12C` (some centres not stated) yielded a concentration giving a half-maximal response (EC50) with H9 [1] of 0.3 µg/mL (≈ 0.563 µM). In the test with H9 [2], this molecule returned an IC50 of 5.1 µg/mL (≈ 9.57 µM). In test [3], this molecule had a Therapeutic index of 17.
Taken in the same sequence, the figures for `CC(C)(O)/C=C/C(=O)[C@](C)(O)[C@H]1[C@H](O)C[C@@]2(C)[C@@H]3CC=C4[C@@H](C[C@H](O)[C@@H](O)C4(C)C)[C@]3(C)C(=O)C[C@]12C` [CUCURBITACIN F] were 0.06 µg/mL (≈ 0.116 µM), 0.16 µg/mL (≈ 0.308 µM) and 2.7.
Taken in the same sequence, the figures for `CC(C)(O)CCC(=O)[C@](C)(O)C1[C@H](O)C(=O)[C@@]2(C)[C@@H]3CC=C4[C@@H](C[C@H](O)[C@@H](O)C4(C)C)[C@]3(C)C(=O)C[C@]12C` (some centres not stated) were 2.5 µg/mL (≈ 4.68 µM), 38 µg/mL (≈ 71.1 µM) and 15.2.
